Patent US11485751B2, “Apramycin derivatives” (WAYNE STATE UNIVERSITY, priority 2017, dated 2022)
In brackets after ≈: the same amount, converted by molar mass.

Key:
[1] = tested on: clinical isolates carrying AAC(3)-IV; assay: MIC broth microdilution, AAC(3)-IV; assay type: cell-based; details: clinical isolates, IMM Univ. Zurich; AAC(3)-IV; read-out: MIC AAC(3)-IV
How it was run: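 Clinical isolates supplied by the Zurich Institute of Medical Microbiology were tested for MIC (μg/ml) using CLSI M07-A10 broth microdilution.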

[2] = tested on: clinical isolates carrying APH(3′)-I; assay: MIC broth microdilution, APH(3′)-I; assay type: cell-based; details: IMM Univ. Zurich
From the text: (§1) Minimal inhibitory concentrations (MIC) have been determined by broth microdilution assays (CLSI. Methods for Dilution Antimicrobial Susceptibility Tests for Bacteria That Grow Aerobically; Approved Standard—Tenth Edition. CLSI document M07-A10. Wayne, Pa.: Clinical and Laboratory Standards Institute; 2015.).
(§2) Minimal inhibitory concentrations (MICs, […]) against clinical isolates from Institute of Medical Microbiology, Univ. Zurich, and the IC50 values for bacterial, human mitochondrial and human cytosolic ribosomes are indicated.

[3] = tested on: clinical isolates carrying APH(3′)-II; assay: MIC broth microdilution, APH(3′)-II; assay type: cell-based; details: clinical isolates, IMM Univ. Zurich; APH(3′)-II; read-out: MIC APH(3′)-II
From the text: as §1, §2

[4] = tested on: clinical isolates carrying APH(3′)-III; assay: MIC broth microdilution, APH(3′)-III; assay type: cell-based; details: IMM Univ. Zurich
From the text: as §1, §2

[5] = tested on: clinical isolates carrying APH(3′)-VI; assay: MIC broth microdilution, APH(3′)-VI; assay type: cell-based; details: IMM Univ. Zurich
From the text: as §1, §2

[6] = tested on: bacterial ribosomes; assay: in-vitro translation assay, bacterial ribosomes; assay type: biochemical
How it was run: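 Cell-free translation; IC50 read-out. Mito = human chimeric ribosomes; cytosolic = rabbit reticulocyte ribosomes; bacterial ribosomes run in the same assay format.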

[7] = tested on: human mitochondrial ribosomes; assay: in-vitro translation assay, human mitochondrial (human chimeric) ribosomes; assay type: biochemical
How it was run: (§3)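 Reported values are IC50s for inhibition of in-vitro translation. For the mitochondrial target, human chimeric ribosomes were used. For the cytosolic target, rabbit reticulocyte ribosomes were used.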

[8] = tested on: human cytosolic ribosomes; assay: in-vitro translation assay, human cytosolic ribosomes; assay type: biochemical
How it was run: as §3

[9] = tested on: AG212, Escherichia coli ATCC25922; assay: MIC reference strain AG212; assay type: cell-based; details: Escherichia coli; reference strain ATCC25922; read-out: MIC AG212 E. coli
How it was run: (§4)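 Compounds serially diluted in broth, bacteria added, growth inhibition scored; the lowest inhibitory concentration is taken as MIC, following CLSI procedures.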

[10] = tested on: AG215, Klebsiella pneumonia; assay: MIC reference strain AG215; assay type: cell-based; details: Klebsiella pneumoniae, reference strain; read-out: MIC AG215 K. pneumonia
How it was run: as §4

[11] = tested on: AG290, Enterobacter cloacae; assay: MIC reference strain AG290; assay type: cell-based; details: Enterobacter cloacae; reference strain; read-out: MIC AG290 E. cloacae
How it was run: as §4

[12] = tested on: AG220, Pseudomonas aeruginosa ATCC27853; assay: MIC reference strain AG220; assay type: cell-based; details: Pseudomonas aeruginosa, ATCC27853, reference strain ATCC27853; read-out: MIC AG220 P. aeruginosa
How it was run: as §4

[13] = tested on: AG225, Acinetobacter baumannii pittii; assay: MIC reference strain AG225; assay type: cell-based; details: Acinetobacter baumannii, reference strain; read-out: MIC AG225 A. baumannii
How it was run: as §4

[14] = tested on: SZ380, Mycobacterium smegmatis; assay: MIC reference strain SZ380; assay type: cell-based; details: Mycolicibacterium smegmatis, reference strain; read-out: MIC SZ380 M. smegmatis
How it was run: as §4

[15] = tested on: ATCC19977 M. abcessus; assay: MIC reference strain ATCC19977; assay type: cell-based; details: read-out: MIC ATCC19977 M. abcessus
How it was run: (§5)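 Compounds are serially diluted in liquid medium in microplates, bacteria are added, and the lowest concentration preventing growth is recorded as the MIC (CLSI procedure).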

[16] = tested on: AG001 E. coli WT; assay: Antibacterial activity, clinical isolate AG001; assay type: cell-based; set-up: unit not given here
How it was run: as §5

[17] = tested on: AG055 E. coli WT; assay: Antibacterial activity, clinical isolate AG055; assay type: cell-based; set-up: unit not given here
How it was run: as §5

[18] = tested on: AG003 E. coli AAC(3)-II; assay: Antibacterial activity, clinical isolate AG003; assay type: cell-based
How it was run: as §5

[19] = tested on: AG173 E. coli AAC(3)-IV; assay: Antibacterial activity, clinical isolate AG173; assay type: cell-based
How it was run: as §5

[20] = tested on: AG163 E. coli APH(3′)-I; assay: Antibacterial activity, clinical isolate AG163; assay type: cell-based
From the text: as §1
Table 4 and 5 show the antibacterial activity of the compounds of the invention against bacterial reference strains (table 4) and against representative clinical isolates (table 5).

[21] = tested on: AG038 MRSA; assay: Antibacterial activity, clinical isolate AG038; assay type: cell-based; set-up: unit not given here
How it was run: as §5

[22] = tested on: AG039 MRSA AAC(6′)-I ANT(4′)-I; assay: Antibacterial activity, clinical isolate AG039; assay type: cell-based
How it was run: as §5

[23] = tested on: AG042 MRSA AAC(6′)-I ANT(4′)-I APH(2′); assay: Antibacterial activity, clinical isolate AG042; assay type: cell-based; set-up: unit not given here
How it was run: as §5

[24] = tested on: AG031 P. aer. APH(3′)-II; assay: Antibacterial activity, clinical isolate AG031; assay type: cell-based; set-up: unit not given here
How it was run: as §5

[25] = tested on: AG032 P. aer. APH(3′)-II; assay: Antibacterial activity, clinical isolate AG032; assay type: cell-based; set-up: unit not given here
How it was run: as §5

[26] = tested on: AG033 P. aer. APH(3′)-II AAC(6′)-I; assay: Antibacterial activity, clinical isolate AG033; assay type: cell-based; set-up: unit not given here
How it was run: as §5

[27] = tested on: Engineered E. coli pH430 WT; assay: Activity, engineered E. coli pH430 WT; assay type: cell-based; details: wild type
How it was run: (§6)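 Strains are tested by broth microdilution under the CLSI M07-A10 procedure. The lowest inhibitory concentration is recorded as the MIC.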

[28] = tested on: Engineered E. coli AG103 armA; assay: Activity against G1405-methylated 16S-rRNA, E. coli AG103 armA; assay type: cell-based
How it was run: as §6

[29] = tested on: Engineered E. coli pH424 armA; assay: Activity against G1405-methylated 16S-rRNA, E. coli pH424 armA; assay type: cell-based
How it was run: as §6

[30] = tested on: Engineered E. coli pH425 rmtB; assay: Activity against G1405-methylated 16S-rRNA, E. coli pH425 rmtB; assay type: cell-based
How it was run: as §6

[31] = tested on: Engineered E. coli pH426 rmtC; assay: Activity against G1405-methylated 16S-rRNA, E. coli pH426 rmtC; assay type: cell-based
How it was run: as §6

[32] = tested on: Engineered E. coli pH427 rmtF; assay: Activity against G1405-methylated 16S-rRNA, E. coli pH427 rmtF; assay type: cell-based
How it was run: as §6

[33] = tested on: APH(3′, 5″) resistance determinant; assay: Susceptibility to the APH(3′, 5″) resistance determinant; assay type: cell-based
From the text: as §1
The introduction of a formamido group results in compounds that display increased selectivity for the bacterial ribosome over the mitochondrial (wild type and A1555G mutant) ribosomes, predictive of reduced ototoxicity.

| Compound | MIC [1] [µg/mL] | MIC [2] [µg/mL] | MIC [3] [µg/mL] | MIC [4] [µg/mL] | MIC [5] [µg/mL] | IC50 [6] [µM] | IC50 [7] [µM] | IC50 [8] [µM] | MIC [9] [µg/mL] | MIC [10] [µg/mL] | MIC [11] [µg/mL] | MIC [12] [µg/mL] | MIC [13] [µg/mL] | MIC [15] [µg/mL] | Antibacterial activity AG001 E. coli WT [16] | Antibacterial activity AG055 E. coli WT [17] | Antibacterial activity AG003 E. coli AAC(3)-II [18] | Antibacterial activity AG173 E. coli AAC(3)-IV [19] | Antibacterial activity AG163 E. coli APH(3′)-I [20] | Antibacterial activity AG038 MRSA [21] | also measured |
| --- | --- | --- | --- | --- | --- | --- | --- | --- | --- | --- | --- | --- | --- | --- | --- | --- | --- | --- | --- | --- | --- |
| CNC1C(OC2OC(CO)C(N)C(O)C2O)OC2CC(N)C(OC3C(N)CC(N)C(O)C3OC3OC(CO)C(OCCO)C3O)OC2C1O [DC178, 5-O-β-[3′″-O-(2-Hydroxyethyl)-D-ribofuranosyl] apramycin] | > 32 | > 64 | 8 (≈ 11.2 µM) | 2 (≈ 2.79 µM) | 16 (≈ 22.4 µM) | 0.22 | 647 | > 500 | 8 | 4 | 8 | > 64 | 16 | 32 (≈ 44.7 µM) | 32 | 16 | 16 | 32-64 | 8 | 16-32 | MIC [14]: 2 µg/mL; Antibacterial activity AG039 MRSA AAC(6′)-I ANT(4′)-I [22]: 32; Antibacterial activity AG042 MRSA AAC(6′)-I ANT(4′)-I APH(2′) [23]: 32; Antibacterial activity AG031 P. aer. APH(3′)-II [24]: >32; Antibacterial activity AG032 P. aer. APH(3′)-II [25]: >32; Antibacterial activity AG033 P. aer. APH(3′)-II AAC(6′)-I [26]: >32; Activity E. coli pH430 WT [27]: 8; Activity E. coli AG103 armA [28]: 2; Activity E. coli pH424 armA [29]: 2; Activity E. coli pH425 rmtB [30]: 8; Activity E. coli pH426 rmtC [31]: 8; Activity E. coli pH427 rmtF [32]: 8 |
| CNC1C(OC2OC(CO)C(N)C(O)C2O)OC2CC(N)C(OC3C(N)CC(N)C(O)C3OC3OC(CNC=O)C(OCCN)C3O)OC2C1O [DC186, 5-β-[3-O-(2-Aminoethyl)-5-deoxy-5-formamido-D-ribofuranosyl] apramycin] | > 32 | 2 (≈ 2.7 µM) | 2 (≈ 2.7 µM) | 0.25 (≈ 0.337 µM) | 2 (≈ 2.7 µM) | 0.06 | 69 | 105 | 2 to 4 | 1 | 1 to 2 | 16 to 32 | 8 | 8 (≈ 10.8 µM) | 2 | 4 | 2 | 32 | 2 | 4 | Antibacterial activity AG039 MRSA AAC(6′)-I ANT(4′)-I [22]: 4-8; Antibacterial activity AG042 MRSA AAC(6′)-I ANT(4′)-I APH(2′) [23]: 4-8; Antibacterial activity AG031 P. aer. APH(3′)-II [24]: 16; Antibacterial activity AG032 P. aer. APH(3′)-II [25]: 32; Antibacterial activity AG033 P. aer. APH(3′)-II AAC(6′)-I [26]: 64; Activity E. coli pH430 WT [27]: 2; Activity E. coli AG103 armA [28]: 0.5-1; Activity E. coli pH424 armA [29]: 2; Activity E. coli pH425 rmtB [30]: 2; Activity E. coli pH426 rmtC [31]: 4; Activity E. coli pH427 rmtF [32]: 2; susceptibility to the APH(3′, 5″) resistance determinant [33]: circumvent this problem |
